Experimental data reported in patent US10689705B2, “FGFR3 fusion gene and pharmaceutical drug targeting same” (Chugai Seiyaku Kabushiki Kaisha, priority 2012, dated 2020).

Experiments:
[1] = test system: RT112/84; assay: Cell proliferation inhibition, WST-8, four days (Example 3); type: cell-based; details: Homo sapiens, RT112/84, 96 h, fusion polypeptide expressing
Protocol: (§1) IC50 was calculated using the least-square method.

[2] = test system: SW780; assay: as above; type: cell-based; details: Homo sapiens, SW780, 96 h, fusion polypeptide expressing
Protocol: as §1

[3] = test system: UM-UC-14; assay: as above; type: cell-based; details: Homo sapiens, UMUC14, 96 h, mutated type FGFR, no fusion
Protocol: as §1

[4] = test system: RT4; assay: as above; type: cell-based; details: Homo sapiens, RT-4, 96 h, fusion polypeptide expressing
Protocol: as §1

[5] = test system: HT-1376; assay: as above; type: cell-based; details: Homo sapiens, HT-1376, 96 h, does not express FGFR3
Protocol: as §1

[6] = test system: BFTC-905; assay: as above; type: cell-based; details: Homo sapiens, BFTC-905, 96 h, wild-type FGFR, no fusion
Protocol: as §1

[7] = test system: RAT-2 cells that stably express FGFR3-BAIAP2L1; details: orally once daily from seven days after planting; concentration-dependent (FIG. 13)
[8] = test system: human bladder cancer cell line RT112/84; assay: Antitumor effect in cancer-bearing nude mice (FGFR3-TACC3 fusion); type: in vivo, BALB/c nude mice; details: RT112/84 xenograft
Protocol: Nude mice were quarantined for about one week before use, and subjected to subcutaneous transplantation of about 1×10^7 RT112/84 cells in the inguinal region. When the tumor size reached about 200 mm^3, the mice were used in experiments.
Antitumor effect was determined by comparing the tumor growth during 11 days after the first day of administration (Day 10 when the first day of administration is set at Day 0) with that of the control group. Tumor growth inhibitory effect(TGI)=(1−[Average tumor growth level of treated group]/[Average tumor growth level of control group])×100(%)

[9] = test system: human bladder cancer cell line SW780; assay: Antitumor effect in cancer-bearing nude mice (FGFR3-BAIAP2L1 fusion); type: in vivo, BALB/c nude mice; details: SW780 xenograft
Protocol: Nude mice were quarantined for about one week before use, and subjected to subcutaneous transplantation of 5×10^6 SW780 cells in the inguinal region. When the tumor size reached about 200 mm^3, the mice were used in experiments. […] Antitumor effect was determined by comparing the tumor growth during 11 days after the first day of administration (Day 10 when the first day of administration is set at Day 0) with that of the control group. Tumor growth inhibitory effect(TGI)=(1−[Average tumor growth level of treated group]/[Average tumor growth level of control group])×100(%)

[10] = test system: colon cancer-derived cell line HCT116; assay: cells; details: Homo sapiens, HCT-116, 96 h, read-out: HCT116 (CRC) IC50;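 note: proliferation measured with WST-8, IC50 derived by least-squares fitting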
[11] = test system: bladder cancer-derived cell line RT-4 which expresses an FGFR3-TACC3 fusion polypeptide; assay: tissue or blood; details: Homo sapiens, 96 h, read-out: RT-4 (Bladder) IC50

For `COc1cc2c(Oc3ccc4[nH]c(C)cc4c3F)ncnc2cc1OCCCN1CCCC1` [COMPOUND E, cediranib], the IC50 [1] was 150 nM, the IC50 [2] was 530 nM and the IC50 [3] was 66 nM. For the same molecule, the IC50 [4] was 240 nM, the IC50 [5] was 1100 nM and the IC50 [6] was 2500 nM.

`CCN(CC)CCCCNc1ncc2cc(-c3cc(OC)cc(OC)c3)c(NC(=O)NC(C)(C)C)nc2n1` [COMPOUND B, PD173074] was tested, and the IC50 [1] was 14 nM, the IC50 [2] was 69 nM and the IC50 [3] was 10 nM. For the same molecule, the IC50 [4] was 180 nM, the IC50 [5] was 11000 nM and the IC50 [6] was 14000 nM.

`Cc1nc2ccc(-n3ncc(C(=O)c4cc5ccccc5[nH]4)c3N)cc2[nH]1` [COMPOUND A] was tested, and the “tumor enlargement enhanced by the FGFR3-BAIAP2L1 fusion polypeptide” value [7] was “significantly suppressed”, the “TGI AFTER 11 DAYS” value ([8]; 25 mg/kg orally once a day) was 61% and the “TGI AFTER 11 DAYS” value ([8]; 50 mg/kg orally once a day) was 86%. The “TGI AFTER 11 DAYS” value ([8]; 100 mg/kg orally once a day) was 125%, the IC50 [1] was 18 nM and the IC50 [2] was 120 nM. The IC50 [3] was 110 nM, the IC50 [4] was 350 nM and the IC50 [5] was greater than 10000 nM. For the same molecule, the IC50 [6] was greater than 10000 nM, the “TGI AFTER 11 DAYS” value ([9]; 25 mg/kg orally once a day) was 47% and the “TGI AFTER 11 DAYS” value ([9]; 50 mg/kg orally once a day) was 79%. The “TGI AFTER 11 DAYS” value ([9]; 100 mg/kg orally once a day) was 111%.

`Cc1nc2ccc(-n3ncc(C(=O)c4cc5ccccc5[nH]4)c3N)cc2[nH]1` [Compound 49] showed an IC50 [10] of 13000 nM and an IC50 [11] of 350 nM.

With `CCN1CCN(c2ccc(Nc3cc(N(C)C(=O)Nc4c(Cl)c(OC)cc(OC)c4Cl)ncn3)cc2)CC1` [COMPOUND D, BGJ-398] the IC50 [1] was 18 nM, the IC50 [2] was 1100 nM and the IC50 [3] was 17 nM. The IC50 [4] was 230 nM, the IC50 [5] was 10000 nM and the IC50 [6] was greater than 20000 nM.

Molecule `COc1cc(CCc2cc(NC(=O)c3ccc(N4C[C@@H](C)N[C@@H](C)C4)cc3)[nH]n2)cc(OC)c1` [COMPOUND C, AZD-4547] has an IC50 [1] of 17 nM, an IC50 [2] of 160 nM and an IC50 [3] of 16 nM. For the same molecule, the IC50 [4] was 250 nM, the IC50 [5] was 6700 nM and the IC50 [6] was 11000 nM.
